Assay results from patent publication US8383406B2, “Method for stimulating the proliferation of differentiated cells belonging to the chondrogenic lineage” (Maco Parma, priority 2007, dated 2013).
Where a SMILES comes first, the peptide text is derived from it.

How the values were obtained:
hybridoma cells = conditions: added to the culture medium; WO 01/46220; cited from earlier work
[1] = test system: human osteoarthritic chondrocytes; assay: Culturing of chondrocytes with or without glycylglycine, cell counting; type: cell-based
Description: The articular cartilage was sampled under sterile conditions from an osteoarthritic patient. The chondrocytes were isolated according to the methods of Green (1971) and Kuettner et al (1982), by enzymatic dissociation of the cartilage in Dulbecco's DMEM medium supplemented with a mixture of antibiotics and antimycotics (10 U/ml penicillin, 10 mg/ml streptomycin, 0.025 mg/ml amphotericin B), 2 mM L-glutamine and 10% foetal calf serum. The cartilage was cut up into small fragments and incubated (37° C.; 20 min) in the aforegoing DMEM medium containing 1 mg/ml of sheep testicular hyaluronidase. The fragments were next washed in PBS buffer (Phosphate Saline Buffer) with a pH of 7.4, and then incubated (60 min, at 37° C.) in the same buffer containing 0.25 g/100 mL trypsin. The fragments of cartilage previously washed with the PBS buffer with a pH of 7.4 were finally dissociated via incubation (15 hrs at 37° C.) in the DMEM medium containing 0.2% collagenase of Clostridium histolyticum and 10% foetal calf serum. The cells were collected by centrifugation (15 min, 3000 g), washed 2 times with the complete DMEM medium and cultured under the conditions hereinbelow. The chondrocytes were cultured on uncoated culture plates with polystyrene wells, at 37° C. for 1 to 7 days in a CO2 atmosphere (5%), in the absence or presence of 20 mM of glycylglycine, in a DMEM medium containing 10% foetal calf serum supplemented with a mixture of antibiotics and antimyotics (10 U/ml penicillin, 10 mg/ml streptomycin, 0.025 mg/ml amphotericin B) and 2 mM L-glutamine. With a view to subsequent cytometric analyses, the chondrocytes were detached by incubating for 3 minutes in a pH 7.4 PBS buffer solution of trypsin (0.25 g/100 ml) and EDTA (0.2 g/100 ml) kept at 37° C. After 3 washings with PBS buffer at pH 7.4, and after counting the cells using a Malassez chamber, the chondrocytes were subjected to various flow cytometry analyses described hereinbelow. FIGS. 1A and 1B show this large-scale production of the chondrocytes. […]

[2] = test system: human osteoarthritic chondrocytes; assay: Cell proliferation test, PKH-26 flow cytometry; type: cell-based; conditions: 20 mM glycylglycine; cultured for 3 days; FIG. 2 curve C vs B
Description: (§1) The analyses were carried out using an FACScan cytometer equipped with ProCellQuest software, under the following experimental conditions: cells in suspension in a PBS isotonic buffer at pH 7.4, having an osmolality of 320-330 mOsmol/kg, with the number of cells analysed being 10,000.
Principle—Prior to being cultured, the chondrocytes were irreversibly labelled with a vital fluorescent membrane intercalator derived from arcidine orange, the PKH-26, with a view to following cell proliferation via flow cytometry, which entails a decrease in the overall fluorescence of the cells.
Operating procedure—10^6 chondrocytes in suspension in 1 ml of the “diluent C” of the labelling kit are added to 1 ml of a […] solution of PKH-26 in the same diluent. After 4 min of incubation at ambient temperature, the reaction is stopped by the addition of 2 ml of foetal calf serum and then, after incubating for one minute, 4 ml of complete DMEM medium are added. After centrifuging (5 min, 2000 g at 25° C.), the resulting sediment is washed 3 times with 10 ml of complete DMEM medium. The cells are then cultured for 3 days under the conditions described in example 1.2, detached from the support thereof according to the above-described method, placed back in suspension in a PBS buffer at pH 7.4 and analyzed by flow cytometry in the logarithmic mode FL2.

chondrocytes = assay: Proliferation rate of the cells, glycylglycine concentration kinetics; type: cell-based, human; conditions: for Number of cells obtained / Proliferation rate after 3 days: 76,000 cells cultured for three days; for Proliferation rate/culture medium without Gly-Gly: three days
Description: The chondrocytes were cultured on uncoated culture plates with polystyrene wells, at 37° C. for 1 to 7 days in a CO2 atmosphere (5%), in the absence or presence of 20 mM of glycylglycine, in a DMEM medium containing 10% foetal calf serum supplemented with a mixture of antibiotics and antimyotics (10 U/ml penicillin, 10 mg/ml streptomycin, 0.025 mg/ml amphotericin B) and 2 mM L-glutamine. With a view to subsequent cytometric analyses, the chondrocytes were detached by incubating for 3 minutes in a pH 7.4 PBS buffer solution of trypsin (0.25 g/100 ml) and EDTA (0.2 g/100 ml) kept at 37° C. After 3 washings with PBS buffer at pH 7.4, and after counting the cells using a Malassez chamber, the chondrocytes were subjected to various flow cytometry analyses described hereinbelow. The table below compiles the proliferation rates of cells cultured in the absence or presence of various concentrations of glycylglycine. In order to carry out this test, 76,000 cells were cultured for three days under the culture conditions presented below.

[3] = test system: human osteoarthritic chondrocytes; assay: Calcein-AM test, viability and cytotoxicity of the cells; type: cell-based; conditions: 20 mM glycylglycine; cultured for 7 days; FIG. 3 curve C vs B
Description: as §1
The viability of the chondrocytes and the toxicity of the peptide were studied using the method developed by Bratosin et al (2005) and based on measuring the cellular esterase activity by means of calcein-AM.
Principle—Calcein-AM is a non-fluorescent acetic ester of fluorescein which passively passes through the membranes of the viable cells and is transformed by the cytosolic esterases into fluorescent calcein, which provides an intense green signal at 530 nm and which is retained only by the cells having an intact plasma membrane. […]
Operating procedure—The chondrocytes (4×10^5) in suspension in 200 μl of PBS buffer at pH 7.4 are incubated (45 min at 37° C.) in darkness, in the presence of 5 μM calcein-AM. Next, 0.5 ml of PBS buffer at pH 7.4 is added to the suspension, which is immediately analysed by flow cytometry in the FL1 logarithmic mode (number of cells counted: 10,000).
The intensity of the fluorescence on a logarithmic scale is plotted on the x-axis and the relative number of cells is plotted on the y-axis.

For `NCC(=O)O` [glycine monomer, glycine, reference compound], the “proliferation of hybridoma cells in comparison with non-supplemented culture medium” value (hybridoma cells) is given as “only very slightly increases”.
For `NCC(=O)NCC(=O)O` [glycylglycine] (H-Gly-Gly-OH), the “proliferation rate in comparison with identical culture medium not supplemented with glycylglycine” value ([1]; 20 mM glycylglycine, DMEM medium, 7 days (FIGS. 1A and 1B), cell counting) was “multiplied by three”, the “proliferation rate in comparison with non-supplemented culture medium (summary statement)” value ([1]; glycylglycine added to the chondrocyte culture medium) was “multiplied by three, and even by seven” and the “dedifferentiation of the chondrocytes into fibroblasts” value ([1]; presence of glycylglycine in culture medium) was “blocks the dedifferentiation of the chondrocytes into fibroblasts”. For the same compound, the “PKH-26 fluorescence / cell divisions compared with DMEM medium without glycylglycine” value [2] was “the cell divisions were more numerous”, the “Number of cells obtained” value (chondrocytes; 20 mM Gly-Gly) was 190,000 cells/ml and the “Proliferation rate after 3 days” value (chondrocytes; 20 mM Gly-Gly) was 150%. The “Proliferation rate/culture medium without Gly-Gly” value (chondrocytes; 20 mM Gly-Gly) was 2.11, the “Number of cells obtained” value (chondrocytes; 50 mM Gly-Gly) was 124,000 cells/ml and the “Proliferation rate after 3 days” value (chondrocytes; 50 mM Gly-Gly) was 63%. For the same compound, the “Proliferation rate/culture medium without Gly-Gly” value (chondrocytes; 50 mM Gly-Gly) was 1.38, the “Number of cells obtained” value (chondrocytes; 100 mM Gly-Gly) was 145,000 cells/ml and the “Proliferation rate after 3 days” value (chondrocytes; 100 mM Gly-Gly) was 91%. For the same compound, the “Proliferation rate/culture medium without Gly-Gly” value (chondrocytes; 100 mM Gly-Gly) was 1.61, the “Number of cells obtained” value (chondrocytes; 200 mM Gly-Gly) was 130,000 cells/ml and the “Proliferation rate after 3 days” value (chondrocytes; 200 mM Gly-Gly) was 71%. The “Proliferation rate/culture medium without Gly-Gly” value (chondrocytes; 200 mM Gly-Gly) was 1.44, the “Number of cells obtained” value (chondrocytes; 500 mM Gly-Gly) was 112,000 cells/ml and the “Proliferation rate after 3 days” value (chondrocytes; 500 mM Gly-Gly) was 47%. The “Proliferation rate/culture medium without Gly-Gly” value (chondrocytes; 500 mM Gly-Gly) was 1.24, the “toxicity to / viability of the chondrocytes (calcein-AM)” value [3] was “not toxic to the chondrocytes and does not reduce the viability thereof” and the “proliferation of hybridoma cells in comparison with non-supplemented culture medium” value (hybridoma cells) was “only very slightly increases”.
